Data as given in patent US20240148821A1, “PHARMACEUTICAL USE OF CYCLIC PEPTIDE COMPOUND” (CHUGAI SEIYAKU KABUSHIKI KAISHA, priority 2021, published 2024).
Bridge positions count the residues as written; N and C are the ends. Square brackets hold non-standard residues; d marks the D form. Peptide text beside a SMILES is read from it. * marks the point of attachment. hPhe(3-Cl-4-CF3) = N[C@@H](CCc1ccc(C(F)(F)F)c(Cl)c1)C(=O)O; hPhe(3-F,4-CF3) = N[C@@H](CCc1ccc(C(F)(F)F)c(F)c1)C(=O)O; NMePhe(4-Me) = CN[C@@H](Cc1ccc(C)cc1)C(=O)O; NMeNle(6-CHF2) = CN[C@@H](CCCCC(F)F)C(=O)O; NMePhe(4-F) = CN[C@@H](Cc1ccc(F)cc1)C(=O)O; NMeGly(cPent) = CN[C@H](C(=O)O)C1CCCC1; NMe3Pal = CN[C@@H](Cc1cccnc1)C(=O)O; NMeCha = CN[C@@H](CC1CCCCC1)C(=O)O; NMeChg = CN[C@H](C(=O)O)C1CCCCC1; NMeI = CC[C@H](C)[C@H](NC)C(=O)O; NMeD = CN[C@@H](CC(=O)O)C(=O)O; NMeL = CN[C@@H](CC(C)C)C(=O)O; NMeNle = CCCC[C@H](NC)C(=O)O; NMeV = CN[C@H](C(=O)O)C(C)C; d(β3hA) = C[C@@H](N)CC(=O)O; Pip = O=C(O)[C@@H]1CCCCN1; NMeA = CN[C@@H](C)C(=O)O; Pyrrolidide = C1CCN(*)C1; dNMeA = CN[C@H](C)C(=O)O; Ac5c = NC1(C(=O)O)CCCC1; Aze = O=C(O)[C@@H]1CCN1; NBuGly = CCCCNCC(=O)O; Aib = CC(C)(N)C(=O)O; NEtG = CCNCC(=O)O; Sar = CNCC(=O)O

Each molecule was assayed on Human pancreatic cancer cell line AsPC-1 (G12D mutation Kras) (assay: AsPC-1 cell growth inhibition (AsPC-1 CGI)). Details: read-out: AsPC-1 cell growth inhibition, 50% growth inhibitory concentration (IC50 value); 96 hours, CellTiter-Glo, values classified in ranges.
Type: cell-based
Protocol: Test compounds were serially dilated with dimethyl sulfoxide, and 200 nL was then dispensed to a U-bottom 96-well plate using Labcyte Echo. […] The cell suspension was dispensed to a. plate containing a test compound at 100 μL per well and incubated at 37° C. in a 5% carbon dioxide gas incubator. 96 hours later, 80 μL of CellTiter-Glo (Promega) was added to each well and fluorescence was measured.

Question: `CC[C@H](C)[C@@H]1NC(=O)[C@H](C)N(C)C(=O)C[C@@H](C(=O)N2CCCC2)N(C)C(=O)[C@H](C2CCCCC2)N(C)C(=O)C2(CCCC2)NC(=O)[C@H](Cc2cccnc2)N(C)C(=O)[C@H](CCc2ccc(C(F)(F)F)c(Cl)c2)NC(=O)CN(C)C(=O)[C@H](CC2CCCCC2)N(C)C(=O)CN(C)C(=O)CN(C)C1=O` [Compound 1834] ([NMeA]I[Sar][Sar][NMeCha][Sar][hPhe(3-Cl-4-CF3)][NMe3Pal][Ac5c][NMeChg][NMeD]-Pyrrolidide; lactam N-11) was tested. Which IC50 did it give?
Answer: > 0.5 µM

Question: Which IC50 does the source give for `CCCCN1CC(=O)N(C)CC(=O)N(C)[C@@H](CC2CCCCC2)C(=O)N(C)CC(=O)N[C@@H](CCc2ccc(C(F)(F)F)c(Cl)c2)C(=O)N2CCC[C@H]2C(=O)NC2(CCCC2)C(=O)N(C)[C@@H](C(C)C)C(=O)N[C@H](C)CC(=O)N(C)[C@@H](CC(C)C)C(=O)N[C@@H]([C@@H](C)CC)C1=O` [Compound 123] (cyclo([Ac5c][NMeV][d(β3hA)][NMeL]I[NBuGly][Sar][NMeCha][Sar][hPhe(3-Cl-4-CF3)]P)) here?
Answer: > 0.5 µM

Question: Which IC50 does the source give for `CC[C@H](C)[C@@H]1NC(=O)[C@@H]2CCCCN2C(=O)C[C@@H](C)NC(=O)[C@H](CC(C)C)N(C)C(=O)C2(CCCC2)NC(=O)[C@H](CC(C)C)N(C)C(=O)[C@H](CCc2ccc(C(F)(F)F)c(Cl)c2)NC(=O)CN(C)C(=O)[C@H](CC2CCCCC2)N(C)C(=O)CN(C)C(=O)CN(C)C1=O` [Compound 213] (cyclo([Ac5c][NMeL][d(β3hA)][Pip]I[Sar][Sar][NMeCha][Sar][hPhe(3-Cl-4-CF3)][NMeL])) here?
Answer: > 0.5 µM

Question: For `CC[C@H](C)[C@@H]1NC(=O)[C@H](CC(C)C)N(C)C(=O)C[C@@H](C(=O)N(C)C)N(C)C(=O)[C@H]([C@@H](C)CC)N(C)C(=O)[C@H](C(C)C)NC(=O)[C@@H](C)NC(=O)[C@H](CCc2ccc(C(F)(F)F)c(Cl)c2)NC(=O)CN(C)C(=O)[C@H](Cc2ccc(C)cc2)N(C)C(=O)[C@@H]2CCN2C(=O)[C@H](C)N(C)C1=O` [Compound 915] ([NMeL]I[NMeA][Aze][NMePhe(4-Me)][Sar][hPhe(3-Cl-4-CF3)][dA]V[NMeI][NMeD]-NMe2; lactam N-11), which IC50 is on record?
Answer: > 0.5 µM

Question: How did the IC50 turn out when `CC[C@H](C)[C@@H]1NC(=O)[C@H](CC(C)C)N(C)C(=O)C[C@@H](C(=O)N2CCCC2)NC(=O)[C@H](CC(C)C)N(C)C(=O)C(C)(C)NC(=O)[C@H](CC(C)C)N(C)C(=O)[C@H](CCc2ccc(C(F)(F)F)c(F)c2)NC(=O)CN(C)C(=O)[C@H](CCCCC(F)F)N(C)C(=O)CN(C)C(=O)CN(C)C1=O` [Compound 1455] ([NMeL]I[Sar][Sar][NMeNle(6-CHF2)][Sar][hPhe(3-F,4-CF3)][NMeL][Aib][NMeL]D-Pyrrolidide; lactam N-11) was run?
Answer: > 0.5 µM

Question: With `CCCC[C@H]1C(=O)N[C@H](C)CC(=O)N(C)[C@@H](CC(C)C)C(=O)N[C@@H]([C@@H](C)CC)C(=O)N(C)CC(=O)N(C)CC(=O)N(C)[C@@H](CC2CCCCC2)C(=O)N(C)CC(=O)N[C@@H](CCc2ccc(C(F)(F)F)c(F)c2)C(=O)N2CCC[C@H]2C(=O)NC2(CCCC2)C(=O)N1C` [Compound 1518] (cyclo([Ac5c][NMeNle][d(β3hA)][NMeL]I[Sar][Sar][NMeCha][Sar][hPhe(3-F,4-CF3)]P)) as the molecule, how does the IC50 read?
Answer: > 0.5 µM

Question: `CC[C@H](C)[C@@H]1NC(=O)[C@H](CC(C)C)N(C)C(=O)C[C@@H](C(=O)N(C)C)N(C)C(=O)[C@H]([C@@H](C)CC)N(C)C(=O)C2(CCCC2)NC(=O)[C@H](C)N(C)C(=O)[C@H](CCc2ccc(C(F)(F)F)c(Cl)c2)NC(=O)CN(C)C(=O)[C@H](Cc2ccc(C)cc2)N(C)C(=O)[C@@H]2CCN2C(=O)[C@H](C)N(C)C1=O` [Compound 378] ([NMeL]I[NMeA][Aze][NMePhe(4-Me)][Sar][hPhe(3-Cl-4-CF3)][NMeA][Ac5c][NMeI][NMeD]-NMe2; lactam N-11) was tested. Which IC50 did it give?
Answer: ≤ 0.02 µM

Question: Which IC50 does the source give for `CC[C@H](C)[C@@H]1NC(=O)[C@H](CC(C)C)N(C)C(=O)C[C@@H](C)NC(=O)[C@H](C(C)C)N(C)C(=O)C2(CCCC2)NC(=O)[C@@H]2CCCN2C(=O)[C@H](CCc2ccc(C(F)(F)F)c(Cl)c2)NC(=O)CN(C)C(=O)[C@H](CC2CCCCC2)N(C)C(=O)CN(CC)C(=O)CN(C)C1=O` [Compound 504] (cyclo([Ac5c][NMeV][d(β3hA)][NMeL]I[Sar][NEtG][NMeCha][Sar][hPhe(3-Cl-4-CF3)]P)) here?
Answer: > 0.5 µM

Question: With `CC[C@H](C)[C@@H]1NC(=O)[C@H](C)N(C)C(=O)C[C@@H](C)NC(=O)[C@H](C2CCCC2)N(C)C(=O)C2(CCCC2)NC(=O)[C@@H]2CCCN2C(=O)[C@H](CCc2ccc(C(F)(F)F)c(Cl)c2)NC(=O)[C@@H](C)N(C)C(=O)[C@H](Cc2ccc(F)cc2)N(C)C(=O)[C@@H]2CCN2C(=O)[C@H](C)N(C)C1=O` [Compound 584] (cyclo([Ac5c][NMeGly(cPent)][d(β3hA)][NMeA]I[NMeA][Aze][NMePhe(4-F)][dNMeA][hPhe(3-Cl-4-CF3)]P)) as the molecule, how does the IC50 read?
Answer: > 0.5 µM
